Measured values: PubChem BioAssay (NCI)
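Step 1: Grow cells in 96-well plates. Step 2: Expose to compound for 48 hours at 5 concentrations. Step 3: Interpolate endpoints linearly; if unreached, use highest concentration. At the GI50, growth is halved. TGI is the concentration that stops growth completely.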

Legend:
Test in all cases: NCI-60 cell line screen, 48 h
CAKI-1 renal = system: CAKI-1 renal
SK-MEL-28 melanoma = system: SK-MEL-28 melanoma
OVCAR-5 ovarian = system: OVCAR-5 ovarian
HL-60(TB) leukemia = system: HL-60(TB) leukemia
SNB-19 CNS = system: SNB-19 CNS
RPMI-8226 leukemia = system: RPMI-8226 leukemia
LOX IMVI melanoma = system: LOX IMVI melanoma
HT29 colon = system: HT29 colon
OVCAR-3 ovarian = system: OVCAR-3 ovarian
HCT-116 colon = system: HCT-116 colon

SMILES | TGI (CAKI-1 renal) [µM] | TGI (SK-MEL-28 melanoma) [µM] | TGI (OVCAR-5 ovarian) [µM] | TGI (HL-60(TB) leukemia) [µM] | TGI (SNB-19 CNS) [µM] | TGI (RPMI-8226 leukemia) [µM] | TGI (LOX IMVI melanoma) [µM] | TGI (HT29 colon) [µM] | TGI (OVCAR-3 ovarian) [µM] | TGI (HCT-116 colon) [µM] | GI50 (CAKI-1 renal) [µM] | GI50 (SK-MEL-28 melanoma) [µM] | GI50 (OVCAR-5 ovarian) [µM] | GI50 (HL-60(TB) leukemia) [µM] | GI50 (SNB-19 CNS) [µM] | GI50 (RPMI-8226 leukemia) [µM] | GI50 (LOX IMVI melanoma) [µM] | GI50 (HT29 colon) [µM] | GI50 (OVCAR-3 ovarian) [µM] | GI50 (HCT-116 colon) [µM]
CCCCCCCCCCCc1c(O)c(=O)c2c(oc3c(=O)c(CCCCCCCCCCC)c(O)c(=O)c3n2-c2ccc(N(C)C)cc2)c1=O | 39.7 | 40 | 50.9 | 90.4 | 58.9 | > 100 | 50.7 | 46.8 | 38.6 | 36.6 | – | – | – | – | – | – | – | – | – | –
CC(C)(C)OC(=O)NCc1cccc(N=C=S)c1 | 53.9 | 37.7 | 74.9 | 69.8 | 44.7 | 56.7 | 31.9 | 54 | 31.2 | 36 | 20.5 | 16.9 | 20.6 | 28.2 | 17.6 | 17.2 | 16.7 | 23.2 | 16.4 | 18
COc1ccc(C(=O)C#Cc2c[nH]c(=O)[nH]c2=O)cc1 | 24.8 | 30.1 | 31 | 23.3 | 44.7 | 41.6 | 9.52 | 28 | 21.6 | 18.3 | – | – | – | – | – | – | – | – | – | –
c1ccc2c(c1)cc1n2CCc2c-1[nH]c1ccccc21 | > 10 | > 10 | > 10 | > 10 | > 10 | > 10 | > 10 | > 10 | > 10 | > 10 | – | – | – | – | – | – | – | – | – | –
N#Cc1cccc(C=NC23CC4CC(CC(C4)C2)C3)c1 | > 100 | > 100 | > 100 | 42.2 | > 100 | > 100 | > 100 | > 100 | > 100 | > 100 | – | – | – | – | – | – | – | – | – | –
c1ccc(OCc2nnc3n2N=C(c2ccccc2)CS3)cc1 | > 100 | > 100 | > 100 | > 100 | > 100 | > 100 | > 100 | > 100 | > 100 | > 100 | – | – | – | – | – | – | – | – | – | –
COc1cc(Cl)cc(-c2nn(-c3cccc(NC(=O)Nc4ccc(Cl)c(Cl)c4)c3)cc2-c2ccncc2)c1 | 16.7 | 36.8 | > 100 | 5.68 | > 100 | 3.37 | 12.4 | 9.07 | 29.4 | > 100 | 2.38 | 2.96 | 4.36 | 2.19 | 3.51 | 0.652 | 2.91 | 2.38 | 1.56 | 2.02
Cc1nc2cc(Nc3ccccc3C(=O)O)ccc2s1 | > 100 | > 100 | > 100 | > 100 | > 100 | > 100 | > 100 | > 100 | > 100 | > 100 | – | – | – | – | – | – | – | – | – | –
COc1ccc(NC(=O)CC(=O)n2nc(C)c(N=Nc3ccccc3C(=O)O)c2C)cc1 | > 100 | > 100 | > 100 | > 100 | > 100 | > 100 | > 100 | > 100 | > 100 | > 100 | – | – | – | – | – | – | – | – | – | –
C[C@H](CCC1SC1(C)C)C1CCC2(C)C3=C(CC[C@]12C)[C@@]1(C)CC[C@H](O)C(C)(C)C1CC3 (stereo not given in full) | > 100 | > 100 | > 100 | > 100 | > 100 | > 100 | > 100 | > 100 | > 100 | > 100 | – | – | – | – | – | – | – | – | – | –
CCCCOC1OC(COC(=O)C(C)C)C(OC(=O)C(C)C)C(O)C1OC1OC(C)C(OC(=O)CCC)C(OC(=O)C(C)C)C1O (stereo not given) | 31.1 | 30 | 25.2 | 42.9 | 31.3 | 8.95 | 26.1 | 22.5 | 24.2 | 18.4 | 17.4 | 16.2 | 12.7 | 18.1 | 16.5 | 2.27 | 13.3 | 9.33 | 11.9 | 6.41
CC(=O)NC(C=O)C(O[C@H](C)C(=O)NC(C)C(=O)NC(CCC(N)=O)C(=O)OCc1ccccc1)C(O)C(O)COC(=O)CCNc1c2ccccc2nc2cccc([N+](=O)[O-])c12 (stereo not given in full) | 93.1 | 11.6 | 13.2 | 31.8 | 17.4 | 4.39 | 31.3 | 7.88 | 4.01 | 2.69 | – | – | – | – | – | – | – | – | – | –
CCSC[C@@H]1C[C@](O)(c2ccc(F)cc2)[C@@H](c2ccc(F)cc2)O1 | 39.7 | 33.3 | 37.9 | 21.2 | 31.1 | 36.1 | 32.2 | 27.7 | 37.1 | 29.2 | 18.2 | 18.3 | 20.2 | 7 | 16.6 | 14.9 | 17.3 | 14.1 | 19.2 | 12.1
